Results from patent publication US11591341B2 (ALIGOS THERAPEUTICS, INC., priority 2019, dated 2023).

System: HBV
Assay: HBV-DNA Antiviral Assay Using HepG2.117 Cells (intracellular HBV DNA by qPCR)
Assay type: cell-based, hepatitis B virus (genotype D)
Details: Hepatitis B virus, HepG2.117
Procedure, shortened: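 HepG2.117 cells (genotype D HBV, Tet-off) were induced by doxycycline withdrawal and treated for 3 days with 9 concentrations in 4-fold dilution, 2% DMSO final. Intracellular HBV DNA was measured by qPCR against a standard curve, with ATPlite viability read in parallel. EC50, EC90 and CC50 came from fits against the DMSO control.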

Compound | EC50 [µM]
N#Cc1cccc(-n2c(C(=O)NCc3ccccc3)c3n(c2=O)CCN(C(=O)c2ccc(Br)c(Cl)c2)C3)c1 [Example 44, N-benzyl-7-(4-bromo-3-chloro-benzoyl)-2-(3-cyanophenyl)-3-oxo-6,8-dihydro-5H-imidazo[1,5-a]pyrazine-1-carboxamide] | 0.5 to 5
CS(=O)(=O)c1ccc(-n2c(C(=O)NCc3ccccc3)c3n(c2=O)CCN(C(=O)c2ccc(Br)c(Cl)c2)C3)cc1 [Example 45, N-benzyl-7-(4-bromo-3-chloro-benzoyl)-2-(4-methylsulfonylphenyl)-3-oxo-6,8-dihydro-5H-imidazo[1,5-a]pyrazine-1-carboxamide] | 0.5 to 5
CS(=O)(=O)c1cccc(-n2c(C(=O)NCc3ccccc3)c3n(c2=O)CCN(C(=O)c2ccc(Br)c(Cl)c2)C3)c1 [Example 46, N-benzyl-7-(4-bromo-3-chloro-benzoyl)-2-(3-methylsulfonylphenyl)-3-oxo-6,8-dihydro-5H-imidazo[1,5-a]pyrazine-1-carboxamide] | > 5
NS(=O)(=O)c1cccc(-n2c(C(=O)NCc3ccccc3)c3n(c2=O)CCN(C(=O)c2ccc(Br)c(Cl)c2)C3)c1 [Example 47, N-benzyl-7-(4-bromo-3-chloro-benzoyl)-3-oxo-2-(3-sulfamoylphenyl)-6,8-dihydro-5H-imidazo[1,5-a]pyrazine-1-carboxamide] | > 5
CNC(=O)c1cccc(-n2c(C(=O)NCc3ccccc3)c3n(c2=O)CCN(C(=O)c2ccc(Br)c(Cl)c2)C3)c1 [Example 48, N-benzyl-7-(4-bromo-3-chloro-benzoyl)-2-[3-(methylcarbamoyl)phenyl]-3-oxo-6,8-dihydro-5H-imidazo[1,5-a]pyrazine-1-carboxamide] | 0.5 to 5
O=C(NCc1ccccc1)c1c2n(c(=O)n1-c1cccnc1)CCN(C(=O)c1ccc(Cl)c(Cl)c1)C2 [Example 49, N-benzyl-7-(3,4-dichlorobenzoyl)-3-oxo-2-(3-pyridyl)-6,8-dihydro-5H-imidazo[1,5-a]pyrazine-1-carboxamide] | > 5
COc1ccc(-n2c(C(=O)NCc3ccccc3)c3n(c2=O)CCN(C(=O)c2ccc(Cl)c(Cl)c2)C3)cc1Cl [Example 50, N-benzyl-2-(3-chloro-4-methoxy-phenyl)-7-(3,4-dichlorobenzoyl)-3-oxo-6,8-dihydro-5H-imidazo[1,5-a]pyrazine-1-carboxamide] | > 5
CCOc1ccc(-n2c(C(=O)NCc3ccccc3)c3n(c2=O)CCN(C(=O)c2ccc(Cl)c(Cl)c2)C3)cc1 [Example 51, N-benzyl-7-(3,4-dichlorobenzoyl)-2-(4-ethoxyphenyl)-3-oxo-6,8-dihydro-5H-imidazo[1,5-a]pyrazine-1-carboxamide] | 0.5 to 5
CC(C)Oc1ccc(-n2c(C(=O)NCc3ccccc3)c3n(c2=O)CCN(C(=O)c2ccc(Cl)c(Cl)c2)C3)cc1 [Example 52] | 0.5 to 5
COc1ccc(-n2c(C(=O)NCc3ccnnc3)c3n(c2=O)CCN(C(=O)c2ccc(Cl)c(Cl)c2)C3)cc1 [Example 53, 7-(3,4-dichlorobenzoyl)-2-(4-methoxyphenyl)-3-oxo-N-(pyridazin-4-ylmethyl)-6,8-dihydro-5H-imidazo[1,5-a]pyrazine-1-carboxamide] | > 5
COc1ccc(-n2c(C(=O)NCc3ccccc3)c3n(c2=O)CCN(C(=O)c2ccc(Cl)c(Cl)c2)C3)cc1 [Example 54, N-benzyl-7-(3,4-dichlorobenzoyl)-2-(4-methoxyphenyl)-3-oxo-6,8-dihydro-5H-imidazo[1,5-a]pyrazine-1-carboxamide] | 0.5 to 5
COc1ccc(-n2c(C(=O)NCc3ccccc3)c3n(c2=O)CCN(C(=O)c2cc4c(C)cccc4[nH]2)C3)cc1 [Example 55, N-benzyl-2-(4-methoxyphenyl)-7-(4-methyl-1H-indole-2-carbonyl)-3-oxo-6,8-dihydro-5H-imidazo[1,5-a]pyrazine-1-carboxamide] | 0.5 to 5
COc1ccc(-n2c(C(=O)NCc3ccccc3)c3n(c2=O)CCN(C(=O)c2cc4c(Cl)cccc4[nH]2)C3)cc1 [Example 56, N-benzyl-7-(4-chloro-1H-indole-2-carbonyl)-2-(4-methoxyphenyl)-3-oxo-6,8-dihydro-H-imidazo[1,5-a]pyrazine-1-carboxamide] | 0.1 to 0.5
COc1ccc(-n2c(C(=O)NCc3ccncc3)c3n(c2=O)CCN(C(=O)c2ccc(Cl)c(Cl)c2)C3)cc1 [Example 57, 7-(3,4-dichlorobenzoyl)-2-(4-methoxyphenyl)-3-oxo-N-(4-pyridylmethyl)-6,8-dihydro-5H-imidazo[1,5-a]pyrazine-1-carboxamide] | > 5
COc1ccc(-n2c(C(=O)NCC(C)C)c3n(c2=O)CCN(C(=O)c2ccc(Cl)c(Cl)c2)C3)cc1 [Example 58, 7-(3,4-dichlorobenzoyl)-N-isobutyl-2-(4-methoxyphenyl)-3-oxo-6,8-dihydro-5H-imidazo[1,5-a]pyrazine-1-carboxamide] | > 5
COc1ccc(-n2c(C(=O)NCc3ccccc3)c3n(c2=O)CCN(C(=O)c2ccc(Cl)c(Cl)c2)C3)c(Cl)c1 [Example 59, N-benzyl-2-(2-chloro-4-methoxy-phenyl)-7-(3,4-dichlorobenzoyl)-3-oxo-6,8-dihydro-5H-imidazo[1,5-a]pyrazine-1-carboxamide] | 0.5 to 5
COc1ccc(-n2c(C(=O)NCc3ccc(F)cc3)c3n(c2=O)CCN(C(=O)c2ccc(Br)c(Cl)c2)C3)cc1 [Example 60, 7-(4-bromo-3-chloro-benzoyl)-N-[(4-fluorophenyl)methyl]-2-(4-methoxyphenyl)-3-oxo-6,8-dihydro-5H-imidazo[1,5-a]pyrazine-1-carboxamide] | 0.1 to 0.5
COc1ccc(-n2c(C(=O)NCc3ccc(F)cc3)c3n(c2=O)CCN(C(=O)c2ccc(Cl)c(Cl)c2)C3)cc1 [Example 61, 7-(3,4-dichlorobenzoyl)-N-[(4-fluorophenyl)methyl]-2-(4-methoxyphenyl)-3-oxo-6,8-dihydro-5H-imidazo[1,5-a]pyrazine-1-carboxamide] | 0.5 to 5
COc1ccc(-n2c(C(=O)NCc3cccc(C#N)c3)c3n(c2=O)CCN(C(=O)c2ccc(Br)c(Cl)c2)C3)cc1 [Example 62, 7-(4-bromo-3-chloro-benzoyl)-N-[(3-cyanophenyl)methyl]-2-(4-methoxyphenyl)-3-oxo-6,8-dihydro-5H-imidazo[1,5-a]pyrazine-1-carboxamide] | 0.5 to 5
COc1ccc(-n2c(C(=O)NCc3cccc(C#N)c3)c3n(c2=O)CCN(C(=O)c2ccc(Cl)c(Cl)c2)C3)cc1 [Example 63, N-[(3-cyanophenyl)methyl]-7-(3,4-dichlorobenzoyl)-2-(4-methoxyphenyl)-3-oxo-6,8-dihydro-5H-imidazo[1,5-a]pyrazine-1-carboxamide] | 0.5 to 5
COc1ccc(-n2c(C(=O)NCc3cccnc3)c3n(c2=O)CCN(C(=O)c2ccc(Cl)c(Cl)c2)C3)cc1 [Example 64, 7-(3,4-dichlorobenzoyl)-2-(4-methoxyphenyl)-3-oxo-N-(3-pyridylmethyl)-6,8-dihydro-5H-imidazo[1,5-a]pyrazine-1-carboxamide] | > 5
COc1ccc(-n2c(C(=O)NCc3ccc4occc4c3)c3n(c2=O)CCN(C(=O)c2ccc(Cl)c(Cl)c2)C3)cc1 [Example 66, N-(benzofuran-5-ylmethyl)-7-(3,4-dichlorobenzoyl)-2-(4-methoxyphenyl)-3-oxo-6,8-dihydro-5H-imidazo[1,5-a]pyrazine-1-carboxamide] | 0.5 to 5
COc1ccc(-n2c(C(=O)NCc3ccc4oc(C)nc4c3)c3n(c2=O)CCN(C(=O)c2ccc(Cl)c(Cl)c2)C3)cc1 [Example 67, 7-(3,4-dichlorobenozyl)-2-(4-methoxyphenyl)-N-[(2-methyl-1,3-benzoxazol-5-yl)methyl]-3-oxo-6,8-dihydro-5H-imidazo[1,5-a]pyrazine-1-carboxamide] | 0.5 to 5
NS(=O)(=O)c1ccc(-n2c(C(=O)NCc3ccccc3)c3n(c2=O)CCN(C(=O)c2ccc(Br)c(Cl)c2)C3)cc1 [Example 71, N-benzyl-7-(4-bromo-3-chloro-benzoyl)-3-oxo-2-(4-sulfamoylphenyl)-6,8-dihydro-5H-imidazo[1,5-a]pyrazine-1-carboxamide] | > 5
COc1ccc(-n2c(-c3ccccc3)c3n(c2=O)CCN(C(=O)c2ccc(Cl)c(Cl)c2)C3)cc1 [Example 74, 7-(3,4-dichlorobenzoyl)-2-(4-methoxyphenyl)-1-phenyl-6,8-dihydro-5H-imidazo[1,5-a]pyrazin-3-one] | > 5
O=C(NCc1ccccc1)c1c2n(c(=O)n1-c1ccccn1)CCN(C(=O)c1ccc(Cl)c(Cl)c1)C2 [Example 78, N-benzyl-7-(3,4-dichlorobenzoyl)-3-oxo-2-(2-pyridyl)-6,8-dihydro-5H-imdiazo[1,5-a]pyrazine-1-carboxamide] | > 5
COc1ccc(-n2c(C(=O)NCc3ccccc3)c3n(c2=O)CCN(C(=O)c2ccc(Cl)c(Cl)c2)C3)c(F)c1 [Example 79, N-benzyl-7-(3,4-dichlorobenzoyl)-2-(2-fluoro-4-methoxy-phenyl)-3-oxo-6,8-dihydro-5H-imidazo[1,5-a]pyrazine-1-carboxamide] | 0.5 to 5
COc1ccc(-n2c(C(=O)NCc3ccccc3)c3n(c2=O)CCN(C(=O)c2ccc(Cl)c(Cl)c2)C3)c(C#N)c1 [Example 80, N-benzyl-2-(2-cyano-4-methoxy-phenyl)-7-(3,4-dichlorobenzoyl)-3-oxo-6,8-dihydro-5H-imidazo[1,5-a]pyrazine-1-carboxamide] | > 5
COc1ccc(-n2c(C(=O)Nc3ccccc3)c3n(c2=O)CCN(C(=O)c2ccc(Cl)c(Cl)c2)C3)cc1 [Example 83, 7-(3,4-dichlorobenzoyl)-2-(4-methoxyphenyl)-3-oxo-N-phenyl-6,8-dihydro-5H-imidazo[1,5-a]pyrazine-1-carboxamide] | > 5
COc1ccc(-n2c(C(=O)NCc3ccc(C#N)cc3)c3n(c2=O)CCN(C(=O)c2ccc(Cl)c(Cl)c2)C3)cc1 [Example 84, N-[(4-cyanophenyl)methyl]-7-(3,4-dichlorobenzoyl)-2-(4-methoxyphenyl)-3-oxo-6,8-dihydro-5H-imidazo[1,5-a]pyrazine-1-carboxamide] | > 5
